# Laboratory results as given in US20100104550A1 (priority 2006, published 2010).
# Experiments:
# GRP78/BiP = GRP78/BiP (Homo sapiens, UniProt P11021); type: cell-based
# CHOP = type: cell-based, murine
# bovine BiP = bovine BiP (Bos taurus, UniProt Q0VCX2); type: biochemical
# BiP = type: cell-based, African green monkey
# Chain of GRP78/BiP (P11021 19-654): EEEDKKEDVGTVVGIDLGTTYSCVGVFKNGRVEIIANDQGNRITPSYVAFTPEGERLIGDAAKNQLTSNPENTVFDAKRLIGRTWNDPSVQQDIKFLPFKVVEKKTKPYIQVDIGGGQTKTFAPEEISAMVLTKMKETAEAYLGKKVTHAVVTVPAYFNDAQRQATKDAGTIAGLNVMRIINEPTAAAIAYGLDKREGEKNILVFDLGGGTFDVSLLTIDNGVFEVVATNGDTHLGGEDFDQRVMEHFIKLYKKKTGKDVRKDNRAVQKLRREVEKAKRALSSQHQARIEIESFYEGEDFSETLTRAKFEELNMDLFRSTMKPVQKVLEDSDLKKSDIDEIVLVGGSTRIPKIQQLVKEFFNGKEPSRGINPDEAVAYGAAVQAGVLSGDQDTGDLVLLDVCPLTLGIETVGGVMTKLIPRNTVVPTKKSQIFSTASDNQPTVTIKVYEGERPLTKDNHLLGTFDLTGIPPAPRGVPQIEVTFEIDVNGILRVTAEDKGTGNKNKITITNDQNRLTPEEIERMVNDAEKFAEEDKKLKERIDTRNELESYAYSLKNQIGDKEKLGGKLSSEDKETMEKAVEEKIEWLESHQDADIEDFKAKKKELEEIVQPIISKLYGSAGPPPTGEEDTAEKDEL
compound,measurement,setting,value
"C/C=C(/C)C(=O)O[C@H]1C(C)=C2[C@H]([C@@H]1OC(=O)CCCCCCC)[C@@](C)(OC(C)=O)C[C@H](OC(=O)CCC)[C@@]1(O)[C@H]2OC(=O)[C@@]1(C)O [thapsigargin, reference compound]",expression of BiP,GRP78/BiP,enhanced expression of BiP
same,CHOP induction in N2A cells,CHOP,evident
"SubB: B subunit of subtilase cytotoxin, 13 kDa, binds target cells and transports SubA intracellularly",cleavage of purified bovine BiP,bovine BiP,not cleaved
tunicamycin,CHOP induction in N2A cells,CHOP,evident
C[C@H]1CCC/C=C/[C@@H]2C[C@H](O)C[C@H]2[C@H](O)/C=C/C(=O)O1 [brefeldin A],effect on SubAB cleavage of 72-kDa BiP,BiP,completely blocked
